Patent publication US20260262643A1, “HERBICIDAL BENZOXAZINES” (FMC CORPORATION, priority 2022, published 2026)

Key:
horseweed = test: Test A postemergence; format: in vivo, Erigeron canadensis; conditions: postemergence, 10 days; for Horseweed plant response rating: 125 g ai/ha, 0 to 100 scale, 0 no effect, 100 complete control; for Plant response rating, Horseweed: 500 g ai/ha, visual injury, 0 to 100 scale (0 no effect, 100 complete control)
Outline: (§1)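 Loam/sand soil; pre-em directed soil spray at planting, post-em spray at 1–2 leaf (2–10 cm). Compound in non-phytotoxic solvent + surfactant. Greenhouse 10 d; visual injury vs untreated, 0 = no effect, 100 = complete control.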

barnyardgrass [1] = test: Test A postemergence; format: in vivo, Echinochloa crusgalli; conditions: postemergence, 10 days; for Barnyardgrass plant response rating: 125 g ai/ha, 0 to 100 scale, 0 no effect, 100 complete control; for Plant response rating, Barnyardgrass: 500 g ai/ha, visual injury, 0 to 100 scale (0 no effect, 100 complete control)
Text: (§2) Seeds of plant species selected from barnyardgrass (Echinochloa crusgalli), blackgrass (Alopecurus myosuroides), corn (Zea mays), foxtail, giant (giant foxtail, Setaria faberi), goosegrass (Eleusine indica), kochia (Bassia scoparia), oat, wild (wild oat, Avena fatua), pigweed, palmer (palmer amaranth, palmer pigweed, Amaranthus palmeri), Pigweed, Redroot (redroot pigweed, Amaranthus retroflexus), ragweed (common ragweed, Ambrosia artemisiifolia), ryegrass, Italian (italian ryegrass, Lolium multiflorum), soybean (Glycine max), and wheat (Triticum aestivum) were planted into a blend of loam soil and sand and treated preemergence with a directed soil spray using test chemicals formulated in a non-phytotoxic solvent mixture which included a surfactant. At the same time, plants selected from these crops and weed species and also galium (catchweed bedstraw, Galium aparine) and horseweed (Erigeron canadensis) were planted in pots containing the same blend of loam soil and sand and treated with postemergence applications of test chemicals formulated in the same manner. Plants ranged in height from 2 to 10 cm and were in the one- to two-leaf stage for the postemergence treatment. Treated plants and untreated controls were maintained in a greenhouse for 10 days, after which time all treated plants were compared to untreated controls and visually evaluated for injury. Plant response ratings, summarized in Table A, are based on a 0 to 100 scale where 0 is no effect and 100 is complete control. A dash (-) response means no test result.

corn [2] = test: Test A postemergence; format: in vivo, Zea mays; conditions: postemergence, 10 days; for Corn plant response rating: 125 g ai/ha, 0 to 100 scale, 0 no effect, 100 complete control; for Plant response rating, Corn: 500 g ai/ha, visual injury, 0 to 100 scale (0 no effect, 100 complete control)
Outline: as §1

kochia [3] = test: Test A postemergence; format: in vivo, Bassia scoparia; conditions: postemergence, 10 days; for Kochia plant response rating: 125 g ai/ha, 0 to 100 scale, 0 no effect, 100 complete control; for Plant response rating, Kochia: 500 g ai/ha, visual injury, 0 to 100 scale (0 no effect, 100 complete control)
Outline: as §1

wheat [4] = test: Test A preemergence; format: in vivo, Triticum aestivum; conditions: 0 to 100 scale
Outline: as §1

ragweed [5] = test: Test A postemergence; format: in vivo, Ambrosia artemisiifolia; conditions: postemergence, 10 days; for Ragweed plant response rating: 125 g ai/ha, 0 to 100 scale, 0 no effect, 100 complete control; for Plant response rating, Ragweed: 500 g ai/ha, visual injury, 0 to 100 scale (0 no effect, 100 complete control)
Outline: as §1

barnyardgrass [6] = test: Test A preemergence; format: in vivo, Echinochloa crusgalli; conditions: visual injury after 10 days, 0 to 100 scale, 0 is no effect, 100 is complete control
Text: as §2

ryegrass, Italian [7] = test: Test A preemergence; format: in vivo, Lolium multiflorum; conditions: 0 to 100 scale
Outline: as §1

oat, wild [8] = test: Test A preemergence; format: in vivo, Avena fatua; conditions: 0 to 100 scale
Outline: as §1

rice = test: Test B flooded paddy test; format: in vivo, Oryza sativa; conditions: 250 g ai/ha, Flood, 13 days, 0 to 100 scale (0 no effect, 100 complete control)
Outline: (§3)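 Percent weed or crop control, judged by eye on a 0–100 scale 13 days post-treatment, reflects compound added to a 3 cm flood maintained over 2-leaf plants in the greenhouse. Missing entries are marked with a dash.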

ducksalad = test: Test B flooded paddy test; format: in vivo, Heteranthera limosa; conditions: 250 g ai/ha, Flood, 13 days, 0 to 100 scale (0 no effect, 100 complete control)
Outline: as §3

foxtail, giant = test: Test A preemergence; format: in vivo, Setaria faberi; conditions: 0 to 100 scale
Outline: as §1

ryegrass, Italian [9] = test: Test A postemergence; format: in vivo, Lolium multiflorum; conditions: postemergence, 10 days; for Ryegrass, Italian plant response rating: 125 g ai/ha, 0 to 100 scale, 0 no effect, 100 complete control; for Plant response rating, Ryegrass, Italian: 500 g ai/ha, visual injury, 0 to 100 scale (0 no effect, 100 complete control)
Outline: as §1

soybean [10] = test: Test A postemergence; format: in vivo, Glycine max; conditions: postemergence, 10 days; for Soybean plant response rating: 125 g ai/ha, 0 to 100 scale, 0 no effect, 100 complete control; for Plant response rating, Soybean: 500 g ai/ha, visual injury, 0 to 100 scale (0 no effect, 100 complete control)
Outline: as §1

wheat [11] = test: Test A postemergence; format: in vivo, Triticum aestivum; conditions: postemergence, 10 days; for Wheat plant response rating: 125 g ai/ha, 0 to 100 scale, 0 no effect, 100 complete control; for Plant response rating, Wheat: 500 g ai/ha, visual injury, 0 to 100 scale (0 no effect, 100 complete control)
Outline: as §1

pigweed, palmer [12] = test: Test A postemergence; format: in vivo, Amaranthus palmeri; conditions: postemergence, 10 days; for Pigweed, Palmer plant response rating: 125 g ai/ha, 0 to 100 scale, 0 no effect, 100 complete control; for Plant response rating, Pigweed, Palmer: 500 g ai/ha, visual injury, 0 to 100 scale (0 no effect, 100 complete control)
Outline: as §1

ragweed [13] = test: Test A preemergence; format: in vivo, Ambrosia artemisiifolia; conditions: 0 to 100 scale
Outline: as §1

blackgrass [14] = test: Test A preemergence; format: in vivo, Alopecurus myosuroides; conditions: 0 to 100 scale
Outline: as §1

oat, wild [15] = test: Test A postemergence; format: in vivo, Avena fatua; conditions: postemergence, 10 days; for Oat, Wild plant response rating: 125 g ai/ha, 0 to 100 scale, 0 no effect, 100 complete control; for Plant response rating, Oat, Wild: 500 g ai/ha, visual injury, 0 to 100 scale (0 no effect, 100 complete control)
Outline: as §1

galium = test: Test A postemergence; format: in vivo, Galium aparine; conditions: postemergence, 10 days; for Galium plant response rating: 125 g ai/ha, 0 to 100 scale, 0 no effect, 100 complete control; for Plant response rating, Galium: 500 g ai/ha, visual injury, 0 to 100 scale (0 no effect, 100 complete control)
Outline: as §1

corn [16] = test: Test A preemergence; format: in vivo, Zea mays; conditions: 0 to 100 scale
Outline: as §1

kochia [17] = test: Test A preemergence; format: in vivo, Bassia scoparia; conditions: 0 to 100 scale
Outline: as §1

pigweed, palmer [18] = test: Test A preemergence; format: in vivo, Amaranthus palmeri; conditions: 0 to 100 scale
Outline: as §1

sedge, umbrella = test: Test B flooded paddy test; format: in vivo, Cyperus difformis; conditions: 250 g ai/ha, Flood, 13 days, 0 to 100 scale (0 no effect, 100 complete control)
Outline: as §3

blackgrass [19] = test: Test A postemergence; format: in vivo, Alopecurus myosuroides; conditions: postemergence, 10 days; for Blackgrass plant response rating: 125 g ai/ha, 0 to 100 scale, 0 no effect, 100 complete control; for Plant response rating, Blackgrass: 500 g ai/ha, visual injury, 0 to 100 scale (0 no effect, 100 complete control)
Outline: as §1

barnyardgrass [20] = test: Test B flooded paddy test; format: in vivo, Echinochloa crus-galli; conditions: 250 g ai/ha, Flood, 13 days, 0 to 100 scale (0 no effect, 100 complete control)
Outline: as §3

soybean [21] = test: Test A preemergence; format: in vivo, Glycine max; conditions: 0 to 100 scale
Outline: as §1

[22] = 500 g ai/ha, visual injury after 10 days, 0 is no effect, 100 is complete control

Cc1ccc(-n2cnc(CO)n2)cc1C(=O)N1C[C@H](C)Oc2c(Cl)cccc21 [Compound 148]
90: Plant response rating, Corn (corn [2]) | Plant response rating, Wheat (wheat [4]; [22]) | Pigweed, Palmer plant response rating (pigweed, palmer [12]) | Plant response rating, Ragweed (ragweed [13]; [22]) | Plant response rating, Blackgrass (blackgrass [14]; [22]) | Galium plant response rating (galium) | Plant response rating, Blackgrass (blackgrass [19])
70: Plant response rating, Ragweed (ragweed [5]) | Plant response rating, Barnyardgrass (barnyardgrass [6]; 125 g ai/ha) | Plant response rating, Wheat (wheat [11]) | Plant response rating, Oat, Wild (oat, wild [15]) | Plant response rating, Kochia (kochia [17]; [22]) | Plant response rating, Soybean (soybean [21]; 125 g ai/ha)
25: Plant response rating, Barnyardgrass (barnyardgrass [20])
60: Plant response rating, Corn (corn [16]; 125 g ai/ha) | Plant response rating, Corn (corn [16]; [22])
40: Blackgrass plant response rating (blackgrass [19])
55: Plant response rating, Ducksalad (ducksalad)
80: Plant response rating, Barnyardgrass (barnyardgrass [1]) | Corn plant response rating (corn [2]) | Plant response rating, Kochia (kochia [3]) | Plant response rating, Ryegrass, Italian (ryegrass, Italian [7]; 125 g ai/ha) | Plant response rating, Oat, Wild (oat, wild [8]; [22]) | Plant response rating, Ryegrass, Italian (ryegrass, Italian [9]) | Plant response rating, Blackgrass (blackgrass [14]; 125 g ai/ha)
50: Horseweed plant response rating (horseweed) | Plant response rating, Horseweed (horseweed) | Kochia plant response rating (kochia [3]) | Ragweed plant response rating (ragweed [5]) | Ryegrass, Italian plant response rating (ryegrass, Italian [9])
100: Plant response rating, Barnyardgrass (barnyardgrass [6]; 500 g ai/ha) | Plant response rating, Ryegrass, Italian (ryegrass, Italian [7]; [22]) | Plant response rating, Foxtail, Giant (foxtail, giant; 125 g ai/ha) | Plant response rating, Foxtail, Giant (foxtail, giant; [22]) | Soybean plant response rating (soybean [10]) | Plant response rating, Soybean (soybean [10]) | Plant response rating, Pigweed, Palmer (pigweed, palmer [12]) | Plant response rating, Galium (galium) | Plant response rating, Pigweed, Palmer (pigweed, palmer [18]; 125 g ai/ha) | Plant response rating, Pigweed, Palmer (pigweed, palmer [18]; [22]) | Plant response rating, Soybean (soybean [21]; [22])
15: Plant response rating, Rice (rice)
20: Plant response rating, Oat, Wild (oat, wild [8]; 125 g ai/ha) | Oat, Wild plant response rating (oat, wild [15]) | Plant response rating, Kochia (kochia [17]; 125 g ai/ha)
65: Plant response rating, Sedge, Umbrella (sedge, umbrella)
30: Barnyardgrass plant response rating (barnyardgrass [1]) | Plant response rating, Wheat (wheat [4]; 125 g ai/ha) | Wheat plant response rating (wheat [11]) | Plant response rating, Ragweed (ragweed [13]; 125 g ai/ha)

Cc1ccc(-n2cnc(C(C)(C)O)n2)cc1C(=O)N1C[C@H](C)Oc2c(Cl)cccc21 [Compound 149]
90: Corn plant response rating (corn [2]) | Plant response rating, Kochia (kochia [3]) | Plant response rating, Wheat (wheat [4]; [22]) | Plant response rating, Ragweed (ragweed [5]) | Plant response rating, Oat, Wild (oat, wild [8]; 125 g ai/ha) | Plant response rating, Oat, Wild (oat, wild [8]; [22]) | Wheat plant response rating (wheat [11]) | Plant response rating, Wheat (wheat [11]) | Plant response rating, Pigweed, Palmer (pigweed, palmer [12]) | Plant response rating, Ragweed (ragweed [13]; [22]) | Plant response rating, Blackgrass (blackgrass [14]; [22]) | Oat, Wild plant response rating (oat, wild [15]) | Plant response rating, Oat, Wild (oat, wild [15]) | Plant response rating, Corn (corn [16]; [22]) | Plant response rating, Pigweed, Palmer (pigweed, palmer [18]; 125 g ai/ha) | Blackgrass plant response rating (blackgrass [19]) | Plant response rating, Blackgrass (blackgrass [19])
75: Plant response rating, Ducksalad (ducksalad)
20: Plant response rating, Rice (rice)
35: Plant response rating, Barnyardgrass (barnyardgrass [20])
80: Kochia plant response rating (kochia [3]) | Ragweed plant response rating (ragweed [5]) | Ryegrass, Italian plant response rating (ryegrass, Italian [9]) | Pigweed, Palmer plant response rating (pigweed, palmer [12]) | Plant response rating, Blackgrass (blackgrass [14]; 125 g ai/ha)
100: Plant response rating, Barnyardgrass (barnyardgrass [1]) | Plant response rating, Corn (corn [2]) | Plant response rating, Barnyardgrass (barnyardgrass [6]; 125 g ai/ha) | Plant response rating, Barnyardgrass (barnyardgrass [6]; 500 g ai/ha) | Plant response rating, Ryegrass, Italian (ryegrass, Italian [7]; 125 g ai/ha) | Plant response rating, Ryegrass, Italian (ryegrass, Italian [7]; [22]) | Plant response rating, Foxtail, Giant (foxtail, giant; 125 g ai/ha) | Plant response rating, Foxtail, Giant (foxtail, giant; [22]) | Plant response rating, Ryegrass, Italian (ryegrass, Italian [9]) | Soybean plant response rating (soybean [10]) | Plant response rating, Soybean (soybean [10]) | Plant response rating, Ragweed (ragweed [13]; 125 g ai/ha) | Galium plant response rating (galium) | Plant response rating, Galium (galium) | Plant response rating, Kochia (kochia [17]; 125 g ai/ha) | Plant response rating, Kochia (kochia [17]; [22]) | Plant response rating, Pigweed, Palmer (pigweed, palmer [18]; [22]) | Plant response rating, Sedge, Umbrella (sedge, umbrella) | Plant response rating, Soybean (soybean [21]; 125 g ai/ha) | Plant response rating, Soybean (soybean [21]; [22])
50: Horseweed plant response rating (horseweed) | Barnyardgrass plant response rating (barnyardgrass [1])
60: Plant response rating, Corn (corn [16]; 125 g ai/ha)
70: Plant response rating, Horseweed (horseweed)
30: Plant response rating, Wheat (wheat [4]; 125 g ai/ha)
